{"source": "patent US7447594B2", "about": "“Molecular cardiotoxicology modeling” (Ocimum Biosolutions, Inc., priority 2001, dated 2008)", "key": {"[1]": {"details": "normotensive rats; cited from earlier work"}, "[2]": {"details": "cited from earlier work; for myocardial necrosis: young and mature rats"}, "[3]": {"details": "rats 3 months to 2 years old, dosed over two days; cited from earlier work"}, "[4]": {"details": "cited from earlier work"}, "[5]": {"details": "intravenous injection, four hours post-dose; cited from earlier work"}, "[6]": {"design": "species or system male Sprague-Dawley rats", "details": "rat, in vivo, iv", "description": "Amphotericin B is a polyene, antifungal antibiotic used to treat fungal infections. Its clinical utility is limited by its nephrotoxicity and cardiotoxicity.\nThe low and high dose level for each compound are provided in the chart below.\nHeart • A sagittal cross-section containing portions of the two atria and of the two ventricles was preserved in 10% NBF. The remaining heart was frozen in liquid nitrogen and stored at ˜−80° C."}, "[7]": {"details": "cited from earlier work", "remark": "listed apart in the source"}, "[8]": {"details": "person, small quantity ingested; cited from earlier work"}, "[9]": {"details": "rat, in vivo; cited from earlier work"}, "[10]": {"details": "cited from earlier work", "remark": "listed apart in the source"}, "cellular glutathione": {"tested_on": "cellular glutathione", "details": "cited from earlier work"}, "[11]": {"details": "of 19 women treated with cyclophosphamide, thiotepa, and carboplatin; cited from earlier work"}, "[12]": {"details": "child, high-dose cyclophosphamide; cited from earlier work"}, "[13]": {"details": "cited from earlier work", "remark": "listed apart in the source"}, "[14]": {"details": "high-dose patients; cited from earlier work"}, "[15]": {"details": "patients that do not have heart failure or use insulin; cited from earlier work"}}, "data": [{"smiles": "Nc1cc(N2CCCCC2)nc(N)[n+]1[O-]", "note": "[minoxidil]", "values": [{"measurement": "cardiac enlargement", "setting": "[1]", "result": "enlargement of the left ventricle, right ventricle, and interventricular septum"}, {"measurement": "myocardial necrosis", "setting": "[2]", "result": "Myocardial necrosis was observed in both age groups"}, {"measurement": "heart lesions", "setting": "[3]", "result": "interstitial hemorrhages at all dose levels"}]}, {"smiles": "COc1cccc2c1C(=O)c1c(O)c3c(c(O)c1C2=O)C[C@@](O)(C(=O)CO)C[C@@H]3O[C@H]1C[C@H](N)[C@@H](O)[C@H](C)O1", "note": "[epirubicin]", "values": [{"measurement": "of these patients, deteriorated into congestive heart failure", "setting": "[4]; human, in vivo", "result": 20, "unit": "%"}, {"measurement": "patients with a 25% relative reduction in left ventricular ejection fraction", "setting": "[4]; three years after epirubicin treatment, 120 patients", "result": "Approximately 59%"}]}, {"smiles": "NNc1nncc2ccccc12", "note": "[hydralazine]", "values": [{"measurement": "early focal myocardial lesions (histopathology)", "setting": "[5]", "result": "Lesions were observed"}, {"measurement": "blood pressure and heart rate effects", "setting": "[2]; rat, in vivo", "result": "Hypotension and reflex tachycardia"}, {"measurement": "myocardial necrosis", "setting": "[2]", "result": "Myocardial necrosis was observed in both age groups"}]}, {"smiles": "C[C@@H]1[C@H](O)[C@@H](C)/C=C/C=C/C=C/C=C/C=C/C=C/C=C/[C@H](O[C@@H]2O[C@H](C)[C@@H](O)[C@H](N)[C@@H]2O)C[C@@H]2O[C@](O)(C[C@@H](O)C[C@@H](O)[C@H](O)CC[C@@H](O)C[C@@H](O)CC(=O)O[C@H]1C)C[C@H](O)[C@H]2C(=O)O", "note": "[amphotericin B]", "values": [{"measurement": "cardiomyopathy", "setting": "[6]", "result": "some early signs of cardiomyopathy"}]}, {"smiles": "CC(C)(C)NCC(O)c1cc(Cl)c(N)c(Cl)c1", "note": "(centres unmarked) [clenbuterol]", "values": [{"measurement": "aortic root dimensions", "setting": "[7]; in vivo", "result": "significantly increased aortic root dimensions"}, {"measurement": "left ventricular dimensions", "setting": "[7]; vs exercised and control mares", "result": "significantly higher left ventricular internal dimension and interventricular septal wall thickness at end diastole"}, {"measurement": "clinical findings after ingestion", "setting": "[8]", "result": "sustained sinus tachycardia, hypokalemia, hypophosphatemia, and hypomagnesemia"}, {"measurement": "muscle hypertrophy", "setting": "[9]", "result": "hypertrophy of the heart and latissimus dorsi muscle"}]}, {"smiles": "C[C@H](CS)C(=O)N1CCC[C@H]1C(=O)O", "note": "[captopril]", "values": [{"measurement": "serum enzyme levels and white blood cell counts", "setting": "[10]; captopril pre-treatment before adriamycin", "result": "significant reduction in serum enzyme levels as well as restoration of white blood cell counts"}]}, {"smiles": "COc1cccc2c1C(=O)c1c(O)c3c(c(O)c1C2=O)C[C@@](O)(C(=O)CO)C[C@@H]3O[C@H]1C[C@H](N)[C@H](O)[C@H](C)O1", "note": "[adriamycin, doxorubicin]", "values": [{"measurement": "serum enzymes (myocardial toxicity)", "setting": "[10]; rat, in vivo", "result": "elevation of serum enzymes such as aspartate transaminase, lactate dehydrogenase, and creatine phosphokinase"}]}, {"smiles": "C=CC=O", "note": "[Acrolein, acrolein]", "values": [{"measurement": "cellular glutathione levels", "setting": "cellular glutathione", "result": "decrease cellular glutathione levels"}]}, {"smiles": "O=P1(N(CCCl)CCCl)NCCCO1", "note": "(centres unmarked) [cyclophosphamide]", "values": [{"measurement": "patients who developed moderate congestive heart failure", "setting": "[11]", "result": "six"}, {"measurement": "cardiac findings", "setting": "[12]", "result": "cardiac arrhythmias and intractable hypotension"}, {"measurement": "patients with clinical cardiotoxicity who were in the high-dose group", "setting": "[13]; out of five patients who developed clinical cardiotoxicity", "result": "four"}, {"measurement": "left ventricular mass index", "setting": "[13]; twice-daily high-dose treatment (174+/−34 mg/kg), within a week", "result": "increase in left ventricular mass index"}, {"measurement": "patients who died of congestive heart failure", "setting": "[14]", "result": "Six"}]}, {"smiles": "CC(C)NCC(O)c1ccc(O)c(O)c1", "note": "(centres unmarked) [isoproterenol]", "values": [{"measurement": "myocardial necrosis", "setting": "[2]", "result": "Myocardial necrosis was observed in both age groups"}]}, {"smiles": "CN(CCOc1ccc(CC2SC(=O)NC2=O)cc1)c1ccccn1", "note": "(centres unmarked) [rosiglitazone]", "values": [{"measurement": "edema", "setting": "[15]", "result": "moderate-to-severe edema"}]}]}
